We go through 3 compounds from publication PMC7582770, “Synthesis of “All-Cis” Trihydroxypiperidines from a Carbohydrate-Derived Ketone: Hints for the Design of New β-Gal and GCase Inhibitors” (Molecules, 2020).

The target in series [1] is T1, amyloglucosidase EC 3.2.1.3 (Aspergillus niger, UniProt P69328).
T1 construct: purchased Sigma-Aldrich or Megazyme Ltd
Briefly: Commercial glycosidase screening. Format: biochemical. Conditions: 0.1 mM inhibitor. An excerpt: (§1) A panel of 12 commercial glycosidases (α-L-fucosidase EC 3.2.1.51 from Homo sapiens, α-galactosidase EC 3.2.1.22 from coffee beans, β-galactosidases EC 3.2.1.23 from Escherichia coli and Aspergillus oryzae, α-glucosidases EC 3.2.1.20 from yeast and rice, amyloglucosidase EC 3.2.1.3 from Aspergillus niger, β-glucosidase EC 3.2.1.21 from almonds, α-mannosidase EC 3.2.1.24 from Jack beans, β-mannosidase EC 3.2.1.25 from snail, β-N-acetylglucosaminidases EC 3.2.1.52 from Jack beans and bovine kidney) purchased from Sigma-Aldrich (St. Louis, MO, USA) or Megazyme Ltd. (Bray, Co. Wicklow, Ireland) was screened.
(§2) The percentage (%) of inhibition towards the corresponding glycosidase was determined in quadruplicate in the presence of 100 μM of the inhibitor on the well. Each enzymatic assay (final volume 0.12 mL) contains 0.01–0.5 units/mL of the enzyme (with previous calibration) and 4.2 mM aqueous solution of the appropriate p-nitrophenyl glycopyranoside (substrate) buffered to the optimal pH of the enzyme. Enzyme and inhibitor were preincubated for 5 min at room temperature, and the reaction started by addition of the substrate. After 20 min of incubation at 37 °C, the reaction was stopped by the addition of 0.1 mL of sodium borate solution (pH 9.8). The p-nitrophenolate formed was measured by visible absorption spectroscopy at 405 nm (Asys Expert 96 spectrophotometer, Biochrom Ltd., Cambridge, England). Under these conditions, the p-nitrophenolate released led to optical densities linear with both reaction time and concentration of the enzyme (for more details, see the Supplementary Materials). The IC50 value (concentration of inhibitor required for 50% inhibition of enzyme activity) was determined from plots of % inhibition vs. different inhibitor concentrations. Each point of the graph is the average of four measures. The standard deviation for each point has been also represented in the graph.

Series [2] addresses T2, α-L-fucosidase EC 3.2.1.51 (Homo sapiens, UniProt P04066).
T2 construct: purchased Sigma-Aldrich or Megazyme Ltd
T2 sequence (P04066 32-466): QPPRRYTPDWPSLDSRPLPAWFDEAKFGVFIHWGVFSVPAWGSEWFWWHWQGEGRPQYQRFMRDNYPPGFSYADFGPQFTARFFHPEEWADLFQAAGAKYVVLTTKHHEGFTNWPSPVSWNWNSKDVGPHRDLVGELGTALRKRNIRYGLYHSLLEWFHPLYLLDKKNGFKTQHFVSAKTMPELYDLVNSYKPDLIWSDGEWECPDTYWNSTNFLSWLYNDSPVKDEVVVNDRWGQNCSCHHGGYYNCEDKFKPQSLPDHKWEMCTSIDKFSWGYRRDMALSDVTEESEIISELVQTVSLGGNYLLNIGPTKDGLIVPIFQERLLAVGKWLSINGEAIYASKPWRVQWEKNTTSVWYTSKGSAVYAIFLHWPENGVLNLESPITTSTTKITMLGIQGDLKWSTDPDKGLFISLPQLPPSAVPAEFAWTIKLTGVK
Briefly: Commercial glycosidase screening. Type of series: biochemical. Conditions: 0.1 mM inhibitor.
Description: as §1, §2

Series [3] addresses T3, α-galactosidase EC 3.2.1.22 (Coffea arabica, UniProt Q42656).
T3 construct: purchased Sigma-Aldrich or Megazyme Ltd
Briefly: Commercial glycosidase screening. Conditions: 0.1 mM inhibitor; read-out: % Inhibition at 0.1 mM, α-galactosidase coffee beans. Type of series: biochemical.
Description: as §1, §2

Series [4] concerns the target T4, α-mannosidase EC 3.2.1.24 (Canavalia ensiformis, UniProt C0HJB3).
T4 construct: purchased Sigma-Aldrich or Megazyme Ltd
T4 sequence (C0HJB3 1-981): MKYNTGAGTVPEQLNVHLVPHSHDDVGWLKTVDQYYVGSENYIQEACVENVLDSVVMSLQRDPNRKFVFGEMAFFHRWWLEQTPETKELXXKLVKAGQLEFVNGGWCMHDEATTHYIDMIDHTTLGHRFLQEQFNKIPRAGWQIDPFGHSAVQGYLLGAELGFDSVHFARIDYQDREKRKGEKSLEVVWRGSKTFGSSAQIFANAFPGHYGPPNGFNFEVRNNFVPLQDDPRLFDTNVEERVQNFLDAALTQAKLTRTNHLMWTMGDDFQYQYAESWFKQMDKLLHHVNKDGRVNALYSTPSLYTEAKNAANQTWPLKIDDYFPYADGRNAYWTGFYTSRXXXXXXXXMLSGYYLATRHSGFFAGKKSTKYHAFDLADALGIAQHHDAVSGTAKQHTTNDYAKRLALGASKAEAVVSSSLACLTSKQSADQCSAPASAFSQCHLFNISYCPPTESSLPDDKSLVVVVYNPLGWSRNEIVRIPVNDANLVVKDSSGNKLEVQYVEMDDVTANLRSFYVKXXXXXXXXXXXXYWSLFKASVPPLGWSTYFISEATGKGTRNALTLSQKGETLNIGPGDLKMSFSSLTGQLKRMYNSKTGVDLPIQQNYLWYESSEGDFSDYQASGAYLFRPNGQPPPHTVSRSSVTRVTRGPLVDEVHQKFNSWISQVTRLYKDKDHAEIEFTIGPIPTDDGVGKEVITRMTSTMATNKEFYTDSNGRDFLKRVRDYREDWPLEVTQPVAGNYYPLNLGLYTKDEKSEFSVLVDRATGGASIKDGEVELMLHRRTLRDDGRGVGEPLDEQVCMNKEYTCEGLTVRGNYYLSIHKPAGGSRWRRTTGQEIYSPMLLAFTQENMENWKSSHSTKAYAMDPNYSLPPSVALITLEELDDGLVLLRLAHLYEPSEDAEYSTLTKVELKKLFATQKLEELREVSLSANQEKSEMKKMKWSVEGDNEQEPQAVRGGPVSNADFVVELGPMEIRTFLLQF
Briefly: Commercial glycosidase screening. Format: biochemical. To be noted: 0.1 mM inhibitor; read-out: % Inhibition at 0.1 mM, α-mannosidase Jack beans.
Description: as §1, §2

The target in series [5] is T5, β-galactosidase EC 3.2.1.23 (Aspergillus oryzae, UniProt Q2UCU3).
T5 construct: purchased Sigma-Aldrich or Megazyme Ltd
T5 sequence (Q2UCU3 19-1005): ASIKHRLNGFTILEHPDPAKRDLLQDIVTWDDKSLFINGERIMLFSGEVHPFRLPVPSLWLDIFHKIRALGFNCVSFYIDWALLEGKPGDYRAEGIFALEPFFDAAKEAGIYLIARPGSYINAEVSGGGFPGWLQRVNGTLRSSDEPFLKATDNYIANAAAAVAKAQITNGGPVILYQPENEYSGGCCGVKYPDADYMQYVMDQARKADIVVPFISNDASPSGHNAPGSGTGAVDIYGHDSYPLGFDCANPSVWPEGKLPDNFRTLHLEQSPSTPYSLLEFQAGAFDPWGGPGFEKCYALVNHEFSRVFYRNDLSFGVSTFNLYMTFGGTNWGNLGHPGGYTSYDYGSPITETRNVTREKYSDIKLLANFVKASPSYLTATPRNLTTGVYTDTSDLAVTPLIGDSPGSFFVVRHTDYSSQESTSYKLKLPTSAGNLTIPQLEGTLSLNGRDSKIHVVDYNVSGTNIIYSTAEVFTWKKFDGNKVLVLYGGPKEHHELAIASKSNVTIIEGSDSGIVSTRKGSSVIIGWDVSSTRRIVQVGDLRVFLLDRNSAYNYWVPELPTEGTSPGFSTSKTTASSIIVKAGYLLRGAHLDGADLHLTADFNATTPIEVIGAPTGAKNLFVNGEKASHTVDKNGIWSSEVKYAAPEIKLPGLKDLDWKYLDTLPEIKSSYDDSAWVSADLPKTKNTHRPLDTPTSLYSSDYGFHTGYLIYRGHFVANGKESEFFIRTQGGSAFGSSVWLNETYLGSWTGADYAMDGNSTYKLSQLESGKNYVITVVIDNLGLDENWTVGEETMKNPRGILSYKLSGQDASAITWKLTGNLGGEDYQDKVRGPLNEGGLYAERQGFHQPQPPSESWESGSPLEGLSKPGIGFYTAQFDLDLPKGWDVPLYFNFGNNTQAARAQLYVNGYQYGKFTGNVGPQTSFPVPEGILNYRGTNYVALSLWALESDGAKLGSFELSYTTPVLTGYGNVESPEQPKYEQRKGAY
Briefly: Commercial glycosidase screening. Conditions: 0.1 mM inhibitor. Type of series: biochemical.
Description: as §1, §2

For series [6], the system named is β-glucosidase EC 3.2.1.21. In words: Commercial glycosidase screening. To be noted: for % Inhibition at 0.1 mM, β-glucosidase almonds: 0.1 mM inhibitor. Format: biochemical, almonds.
Description: as §1, §2

T1 sequence (P69328 25-640): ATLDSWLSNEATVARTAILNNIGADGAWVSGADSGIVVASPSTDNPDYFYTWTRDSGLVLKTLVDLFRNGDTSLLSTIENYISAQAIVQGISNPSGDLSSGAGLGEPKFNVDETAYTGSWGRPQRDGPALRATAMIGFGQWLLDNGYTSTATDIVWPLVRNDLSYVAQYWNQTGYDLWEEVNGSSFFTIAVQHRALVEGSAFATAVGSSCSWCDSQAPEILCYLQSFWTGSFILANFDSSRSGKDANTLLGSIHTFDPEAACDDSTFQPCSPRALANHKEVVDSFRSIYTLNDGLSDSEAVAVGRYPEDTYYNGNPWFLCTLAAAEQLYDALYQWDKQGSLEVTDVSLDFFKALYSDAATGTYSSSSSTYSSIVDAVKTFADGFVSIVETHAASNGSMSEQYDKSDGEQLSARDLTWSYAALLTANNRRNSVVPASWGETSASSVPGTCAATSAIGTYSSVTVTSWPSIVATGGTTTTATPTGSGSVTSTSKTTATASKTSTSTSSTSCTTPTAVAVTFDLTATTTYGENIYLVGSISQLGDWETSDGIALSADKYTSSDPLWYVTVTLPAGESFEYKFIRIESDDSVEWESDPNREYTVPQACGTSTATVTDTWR
T3 sequence (Q42656 16-378): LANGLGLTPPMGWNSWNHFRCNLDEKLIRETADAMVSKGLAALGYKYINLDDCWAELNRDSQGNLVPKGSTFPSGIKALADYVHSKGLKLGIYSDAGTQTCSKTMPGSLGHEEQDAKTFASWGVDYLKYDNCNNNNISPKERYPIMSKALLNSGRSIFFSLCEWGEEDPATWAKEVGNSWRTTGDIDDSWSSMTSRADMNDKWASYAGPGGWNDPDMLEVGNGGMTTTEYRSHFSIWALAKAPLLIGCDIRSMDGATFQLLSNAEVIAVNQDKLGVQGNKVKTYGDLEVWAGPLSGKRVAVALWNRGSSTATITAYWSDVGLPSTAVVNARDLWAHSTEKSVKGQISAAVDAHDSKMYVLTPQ

On to `CCCCCCCC[C@]1(O)CNC[C@@H](O)[C@H]1O` [compound 12, (3S, 4R, 5R)-3,4,5-Trihydroxy-3-Octyl-Piperidine], for which the inhibition at 100 µM in series [1], in series [2], in series [3], in series [4] and in series [5] was 0% in each case. For the same compound, the “% Inhibition at 0.1 mM, β-glucosidase almonds” value (“% Inhibition at 0.1 mM” for short) in series [6] is listed as “- (no inhibition detected)”.

On to `CCCCCCCCCO[C@@H]1CNC[C@@H](O)[C@H]1O` [compound 21, (3R, 4R, 5R)-4,5-Dihydroxy-3-(Nonyloxy) Piperidine], for which the inhibition at 100 µM in series [1], in series [2], in series [3], in series [4] and in series [5] was 0% in each case. The “% Inhibition at 0.1 mM” value in series [6] is listed as “- (no inhibition detected)”.

Take `CCCCCCCCCCCCN[C@H]1CNC[C@@H](O)[C@H]1O` [compound 10, (3R, 4S, 5S)-3,4-Dihydroxy-5-(Dodecylamino) Piperidine]: the melting point was 92 to 94 °C. In series [1], this compound had an inhibition at 100 µM of 0%. The same compound had an inhibition at 100 µM in series [2] of 0%. In addition, the inhibition at 100 µM in series [3] turned out to be 0%. The inhibition at 100 µM in series [4] came to 0%. This compound returned an inhibition at 100 µM in series [5] of 0%. The “% Inhibition at 0.1 mM” value in series [6] came out at 51±1%. Also, the half-maximal inhibitory concentration (IC50) in series [6] (read-out: IC50 (β-glucosidase from almonds)) came out at 85 µM.

As usually defined, the inhibition is how much of the control response was suppressed. For orientation: % Inhibition means the percentage by which the read-out fell short of the control. What is called IC50 is the concentration at which inhibition is half-maximal. Broadly, the melting point is the temperature of the solid-liquid transition.
